Legend:
Assay type in all cases: in vivo
[1] = system: soybean (Glycine max L., var. Pella 86, SOY); test: Post-emerge greenhouse test, crop damage rating; details: 14 days after application
Summary of the method: (§1)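 Compounds in acetone with 0.25% v/v non-ionic surfactant were track-sprayed at 187 l/ha over plants at the 2-3 leaf stage, at 63 to 1000 g ai/ha. Pots were bottom-watered. Injury was scored visually 14 days later on a 0-100 scale, where 0 is no damage and 100 is complete plant death.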

[2] = system: soybean (Glycine max L., var. Pella 86, SOY); test: Pre-emerge greenhouse test, crop damage rating; details: 14 days after application, rating scale 0-100
Summary of the method: (§2)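 Seeds sown in sandy loam mix one day before track-sprayer application of compounds in acetone at 125–1000 g ai/ha (187 l/ha), then surface-watered to incorporate and bottom-watered. Visual rating 14 days after application on a 0–100 scale (0 = no damage, 100 = all plants dead).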

[3] = system: common ragweed (Ambrosia artemisiifolia L., AMBEL); test: Post-emerge greenhouse herbicide test, phytotoxicity rating; details: 14 days after application
Summary of the method: as §1

[4] = system: green foxtail (Setaria viridis, SETVI); test: Pre-emerge greenhouse herbicide test, phytotoxicity rating; details: 14 days after application, rating scale 0-100
Summary of the method: as §2

[5] = system: large crabgrass (Digitaria sanguinalis, DIGSA); test: as above; details: 14 days after application, rating scale 0-100
Summary of the method: as §2

[6] = system: common ragweed (Ambrosia artemisiifolia L., AMBEL); test: as above; details: 14 days after application, rating scale 0-100
Summary of the method: as §2

[7] = system: sicklepod (Cassia obtusifolia, CASOB); test: as above; details: 14 days after application, rating scale 0-100
Summary of the method: as §2

[8] = system: barnyardgrass (Echinochloa crusgalli, ECHCG); test: as above; details: 14 days after application, rating scale 0-100
Summary of the method: as §2

[9] = system: lambsquarters (Chenopodium album, CHEAL); test: as above; details: 14 days after application, rating scale 0-100
Summary of the method: as §2

[10] = system: redroot pigweed (Amaranthus retroflexus, AMARE); test: as above; details: 14 days after application, rating scale 0-100
Summary of the method: as §2

[11] = system: Johnsongrass (Sorghum halepense, SORHA); test: as above; details: 14 days after application, rating scale 0-100
Summary of the method: as §2

[12] = system: velvetleaf (Abutilon theophrasti, ABUTH); test: as above; details: 14 days after application, rating scale 0-100
Summary of the method: as §2

[13] = system: ivyleaf morningglory (Ipomoea hederacea, IPOHE); test: as above; details: 14 days after application, rating scale 0-100
Summary of the method: as §2

[14] = system: green foxtail (Setaria viridis, SETVI); test: Post-emerge greenhouse herbicide test, phytotoxicity rating; details: 14 days after application
Summary of the method: as §1

[15] = system: large crabgrass (Digitaria sanguinalis, DIGSA); test: as above; details: 14 days after application
Summary of the method: as §1

[16] = system: sicklepod (Cassia obtusifolia, CASOB); test: as above; details: 14 days after application
Summary of the method: as §1

[17] = system: barnyardgrass (Echinochloa crusgalli, ECHCG); test: as above; details: 14 days after application
Summary of the method: as §1

[18] = system: lambsquarters (Chenopodium album, CHEAL); test: as above; details: 14 days after application
Summary of the method: as §1

[19] = system: redroot pigweed (Amaranthus retroflexus, AMARE); test: as above; details: 14 days after application
Summary of the method: as §1

[20] = system: Johnsongrass (Sorghum halepense, SORHA); test: as above; details: 14 days after application
Summary of the method: as §1

[21] = system: velvetleaf (Abutilon theophrasti, ABUTH); test: as above; details: 14 days after application
Summary of the method: as §1

[22] = system: ivyleaf morningglory (Ipomoea hederacea, IPOHE); test: as above; details: 14 days after application
Summary of the method: as §1

[23] = system: upland rice (Oryza sp., var.Tebonnet, RICE); test: Pre-emerge greenhouse test, crop damage rating; details: 14 days after application, rating scale 0-100
Summary of the method: as §2

[24] = system: field corn (Zea mays L., var. Dekalb 535, CORN); test: Pre-emerge greenhouse test, crop damage rating; details: 14 days after application, rating scale 0-100
Summary of the method: as §2

[25] = system: upland rice (Oryza sp., var.Tebonnet, RICE); test: Post-emerge greenhouse test, crop damage rating; details: 14 days after application
Summary of the method: as §1

[26] = system: field corn (Zea mays L., var. Dekalb 535, CORN); test: Post-emerge greenhouse test, crop damage rating; details: 14 days after application
Summary of the method: as §1

`N#Cc1cccnc1Oc1cc(-n2nnn(CCCF)c2=O)c(F)cc1Cl` [Compound 6-4] was tested, and the “SOY crop damage rating (0-100)” value ([1]; 63 g al/ha) was 20, the “SOY crop damage rating (0-100)” value ([1]; 500 g al/ha) was 60 and the “crop damage rating SOY” value ([2]; 125 g ai/ha) was 0. The “crop damage rating SOY” value ([2]; 500 g ai/ha) was 20, the “AMBEL phytotoxicity rating (0-100)” value ([3]; 63 g al/ha) was 20 and the “AMBEL phytotoxicity rating (0-100)” value ([3]; 500 g al/ha) was 20. For the same molecule, the “phytotoxicity rating SETVI” value ([4]; 125 g ai/ha) was 100, the “phytotoxicity rating SETVI” value ([4]; 500 g ai/ha) was 100 and the “phytotoxicity rating DIGSA” value ([5]; 125 g ai/ha) was 70. For the same molecule, the “phytotoxicity rating DIGSA” value ([5]; 500 g ai/ha) was 100, the “phytotoxicity rating AMBEL” value ([6]; 125 g ai/ha) was 0 and the “phytotoxicity rating AMBEL” value ([6]; 500 g ai/ha) was 40. For the same molecule, the “phytotoxicity rating CASOB” value ([7]; 125 g ai/ha) was 50, the “phytotoxicity rating CASOB” value ([7]; 500 g ai/ha) was 30 and the “phytotoxicity rating ECHCG” value ([8]; 125 g ai/ha) was 0. The “phytotoxicity rating ECHCG” value ([8]; 500 g ai/ha) was 95, the “phytotoxicity rating CHEAL” value ([9]; 125 g ai/ha) was 100 and the “phytotoxicity rating CHEAL” value ([9]; 500 g ai/ha) was 100. For the same molecule, the “phytotoxicity rating AMARE” value ([10]; 125 g ai/ha) was 100, the “phytotoxicity rating AMARE” value ([10]; 500 g ai/ha) was 100 and the “phytotoxicity rating SORHA” value ([11]; 125 g ai/ha) was 20. For the same molecule, the “phytotoxicity rating SORHA” value ([11]; 500 g ai/ha) was 100, the “phytotoxicity rating ABUTH” value ([12]; 125 g ai/ha) was 100 and the “phytotoxicity rating ABUTH” value ([12]; 500 g ai/ha) was 100. For the same molecule, the “phytotoxicity rating IPOHE” value ([13]; 125 g ai/ha) was 40, the “phytotoxicity rating IPOHE” value ([13]; 500 g ai/ha) was 100 and the “SETVI phytotoxicity rating (0-100)” value ([14]; 63 g al/ha) was 20. The “SETVI phytotoxicity rating (0-100)” value ([14]; 500 g al/ha) was 40, the “DIGSA phytotoxicity rating (0-100)” value ([15]; 63 g al/ha) was 0 and the “DIGSA phytotoxicity rating (0-100)” value ([15]; 500 g al/ha) was 0. The “CASOB phytotoxicity rating (0-100)” value ([16]; 63 g al/ha) was 15, the “CASOB phytotoxicity rating (0-100)” value ([16]; 500 g al/ha) was 50 and the “ECHCG phytotoxicity rating (0-100)” value ([17]; 63 g al/ha) was 0. For the same molecule, the “ECHCG phytotoxicity rating (0-100)” value ([17]; 500 g al/ha) was 60, the “CHEAL phytotoxicity rating (0-100)” value ([18]; 63 g al/ha) was 85 and the “CHEAL phytotoxicity rating (0-100)” value ([18]; 500 g al/ha) was 100. For the same molecule, the “AMARE phytotoxicity rating (0-100)” value ([19]; 63 g al/ha) was 75, the “AMARE phytotoxicity rating (0-100)” value ([19]; 500 g al/ha) was 99 and the “SORHA phytotoxicity rating (0-100)” value ([20]; 63 g al/ha) was 0. The “SORHA phytotoxicity rating (0-100)” value ([20]; 500 g al/ha) was 80, the “ABUTH phytotoxicity rating (0-100)” value ([21]; 63 g al/ha) was 90 and the “ABUTH phytotoxicity rating (0-100)” value ([21]; 500 g al/ha) was 100. For the same molecule, the “IPOHE phytotoxicity rating (0-100)” value ([22]; 63 g al/ha) was 65, the “IPOHE phytotoxicity rating (0-100)” value ([22]; 500 g al/ha) was 85 and the “crop damage rating RICE” value ([23]; 125 g ai/ha) was 15. The “crop damage rating RICE” value ([23]; 500 g ai/ha) was 35, the “crop damage rating CORN” value ([24]; 125 g ai/ha) was 0 and the “crop damage rating CORN” value ([24]; 500 g ai/ha) was 10. The “RICE crop damage rating (0-100)” value ([25]; 63 g al/ha) was 20, the “RICE crop damage rating (0-100)” value ([25]; 500 g al/ha) was 35 and the “CORN crop damage rating (0-100)” value ([26]; 63 g al/ha) was 10. The “CORN crop damage rating (0-100)” value ([26]; 500 g al/ha) was 20.

Source: US6479435B1, “Diaryl ethers and processes for their preparation and herbicidal and desiccant compositions containing them” (ISK Americas Incorporated, priority 1997, dated 2002)
